# Data taken from PMC10174618, “Monoterpenoid aryl hydrocarbon receptor allosteric antagonists protect against ultraviolet skin damage in female mice” (Nature Communications, 2023).
# What was measured:
# Experiment in all cases: biochemical
# Parameters in all cases: KINOMEscan scanMAX active site-directed competition binding assay, percent of control, 468 kinases
# Conditions in all cases: competition binding, percent of control
# [1] = molecular target: T1, ABL1(Y253F)-phosphorylated (Homo sapiens, UniProt P00519, Y253F)
# T1 construct: phosphorylated
# Summary of the method: (§1)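 Single-concentration screen (100 μM S-carvone) in a competition binding panel of 468 human kinases (KINOMEscan scanMAX); results given as percent of control, hit cutoff 35%.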
# ABL1-phosphorylated = molecular target: T2, ABL1-phosphorylated (Homo sapiens, UniProt P00519)
# T2 construct: phosphorylated
# Summary of the method: as §1
# ABL2 = ABL2 (Homo sapiens, UniProt P42684)
# Summary of the method: as §1
# ANKK1 = ANKK1 (Homo sapiens, UniProt Q8NFD2)
# Summary of the method: as §1
# EGFR(G719C) = EGFR(G719C) (Homo sapiens, UniProt P00533, G719C)
# Summary of the method: as §1
# EPHA4 = EPHA4 (Homo sapiens, UniProt P54764)
# Chain of EPHA4 (P54764 whole entry): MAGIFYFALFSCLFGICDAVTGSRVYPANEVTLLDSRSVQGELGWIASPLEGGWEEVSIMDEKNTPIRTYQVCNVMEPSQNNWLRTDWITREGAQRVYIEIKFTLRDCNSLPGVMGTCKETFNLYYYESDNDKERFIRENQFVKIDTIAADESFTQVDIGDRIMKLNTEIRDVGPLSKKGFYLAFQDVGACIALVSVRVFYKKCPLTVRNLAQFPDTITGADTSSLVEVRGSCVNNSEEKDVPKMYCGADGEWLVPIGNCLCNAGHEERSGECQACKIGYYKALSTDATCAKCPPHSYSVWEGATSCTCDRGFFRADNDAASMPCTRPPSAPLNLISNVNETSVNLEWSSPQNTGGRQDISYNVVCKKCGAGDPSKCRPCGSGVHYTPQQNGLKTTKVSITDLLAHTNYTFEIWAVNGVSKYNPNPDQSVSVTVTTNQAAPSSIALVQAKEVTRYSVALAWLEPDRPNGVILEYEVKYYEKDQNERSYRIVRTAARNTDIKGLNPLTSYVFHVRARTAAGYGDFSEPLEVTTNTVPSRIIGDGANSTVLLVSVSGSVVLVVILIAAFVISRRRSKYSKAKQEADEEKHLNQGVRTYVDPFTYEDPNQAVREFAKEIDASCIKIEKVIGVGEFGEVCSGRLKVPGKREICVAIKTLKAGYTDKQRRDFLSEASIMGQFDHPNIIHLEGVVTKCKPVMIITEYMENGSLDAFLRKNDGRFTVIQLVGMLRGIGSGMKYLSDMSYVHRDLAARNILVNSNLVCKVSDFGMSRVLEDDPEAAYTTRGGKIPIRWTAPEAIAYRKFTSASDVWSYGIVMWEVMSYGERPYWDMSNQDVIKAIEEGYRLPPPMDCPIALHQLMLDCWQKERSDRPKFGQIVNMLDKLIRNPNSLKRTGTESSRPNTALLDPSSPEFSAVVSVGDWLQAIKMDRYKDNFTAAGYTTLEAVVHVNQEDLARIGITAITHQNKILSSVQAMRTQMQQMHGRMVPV
# Summary of the method: as §1
# ERK1 = molecular target: T3, ERK1 (Homo sapiens, UniProt P27361)
# T3 construct: gene MAPK3
# T3 sequence (P27361 whole entry): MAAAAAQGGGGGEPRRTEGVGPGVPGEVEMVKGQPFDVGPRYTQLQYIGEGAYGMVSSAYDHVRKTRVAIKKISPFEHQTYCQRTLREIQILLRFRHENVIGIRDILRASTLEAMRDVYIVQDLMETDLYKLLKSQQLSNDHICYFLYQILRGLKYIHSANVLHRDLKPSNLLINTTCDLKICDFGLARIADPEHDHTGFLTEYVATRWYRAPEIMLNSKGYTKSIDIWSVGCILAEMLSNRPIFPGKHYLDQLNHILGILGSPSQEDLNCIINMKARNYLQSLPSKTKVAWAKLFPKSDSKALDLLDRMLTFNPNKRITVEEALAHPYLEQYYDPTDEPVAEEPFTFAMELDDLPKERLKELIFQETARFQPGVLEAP
# Summary of the method: as §1
# FAK = molecular target: T4, FAK (Homo sapiens, UniProt Q05397)
# T4 construct: gene PTK2
# Summary of the method: as §1
# FGR = FGR (Homo sapiens, UniProt P09769)
# Summary of the method: as §1
# GSK3B = GSK3B (Homo sapiens, UniProt P49841)
# Chain of GSK3B (P49841 whole entry): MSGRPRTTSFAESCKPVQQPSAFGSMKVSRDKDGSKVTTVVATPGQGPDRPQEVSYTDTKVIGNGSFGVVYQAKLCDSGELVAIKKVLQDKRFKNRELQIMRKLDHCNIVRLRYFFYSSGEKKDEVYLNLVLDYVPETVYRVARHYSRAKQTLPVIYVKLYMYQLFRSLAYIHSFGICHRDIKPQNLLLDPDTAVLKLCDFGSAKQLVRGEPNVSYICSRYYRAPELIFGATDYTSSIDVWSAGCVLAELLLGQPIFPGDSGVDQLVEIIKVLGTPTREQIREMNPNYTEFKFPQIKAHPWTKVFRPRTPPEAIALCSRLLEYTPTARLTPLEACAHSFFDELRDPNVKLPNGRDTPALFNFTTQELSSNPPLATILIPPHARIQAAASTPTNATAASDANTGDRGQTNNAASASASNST
# Summary of the method: as §1
# JNK2 = molecular target: T5, JNK2 (Homo sapiens, UniProt P45984)
# T5 construct: gene MAPK9
# T5 sequence (P45984 whole entry): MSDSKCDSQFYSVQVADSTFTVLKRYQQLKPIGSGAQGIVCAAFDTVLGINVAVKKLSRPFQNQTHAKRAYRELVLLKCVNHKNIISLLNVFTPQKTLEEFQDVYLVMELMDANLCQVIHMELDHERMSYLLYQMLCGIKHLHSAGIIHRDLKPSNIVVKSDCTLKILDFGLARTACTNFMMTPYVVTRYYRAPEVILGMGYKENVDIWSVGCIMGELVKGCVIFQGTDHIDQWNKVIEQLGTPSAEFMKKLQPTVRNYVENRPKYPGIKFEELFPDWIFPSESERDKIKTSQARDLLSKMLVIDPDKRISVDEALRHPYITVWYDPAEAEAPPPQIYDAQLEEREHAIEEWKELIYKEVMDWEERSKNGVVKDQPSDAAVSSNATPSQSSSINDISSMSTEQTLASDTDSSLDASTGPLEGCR
# Summary of the method: as §1
# JNK3 = molecular target: T6, JNK3 (Homo sapiens, UniProt P53779)
# T6 construct: gene MAPK10
# Summary of the method: as §1
# KIT(V559D,T670I) = KIT(V559D,T670I) (Homo sapiens, UniProt P10721, T670I/V559D)
# Summary of the method: as §1
# LATS2 = LATS2 (Homo sapiens, UniProt Q9NRM7)
# Summary of the method: as §1
# MINK = molecular target: T7, MINK (Homo sapiens, UniProt Q8N4C8)
# T7 construct: gene MINK1
# Summary of the method: as §1
# MYO3B = MYO3B (Homo sapiens, UniProt Q8WXR4)
# Chain of MYO3B (Q8WXR4 whole entry): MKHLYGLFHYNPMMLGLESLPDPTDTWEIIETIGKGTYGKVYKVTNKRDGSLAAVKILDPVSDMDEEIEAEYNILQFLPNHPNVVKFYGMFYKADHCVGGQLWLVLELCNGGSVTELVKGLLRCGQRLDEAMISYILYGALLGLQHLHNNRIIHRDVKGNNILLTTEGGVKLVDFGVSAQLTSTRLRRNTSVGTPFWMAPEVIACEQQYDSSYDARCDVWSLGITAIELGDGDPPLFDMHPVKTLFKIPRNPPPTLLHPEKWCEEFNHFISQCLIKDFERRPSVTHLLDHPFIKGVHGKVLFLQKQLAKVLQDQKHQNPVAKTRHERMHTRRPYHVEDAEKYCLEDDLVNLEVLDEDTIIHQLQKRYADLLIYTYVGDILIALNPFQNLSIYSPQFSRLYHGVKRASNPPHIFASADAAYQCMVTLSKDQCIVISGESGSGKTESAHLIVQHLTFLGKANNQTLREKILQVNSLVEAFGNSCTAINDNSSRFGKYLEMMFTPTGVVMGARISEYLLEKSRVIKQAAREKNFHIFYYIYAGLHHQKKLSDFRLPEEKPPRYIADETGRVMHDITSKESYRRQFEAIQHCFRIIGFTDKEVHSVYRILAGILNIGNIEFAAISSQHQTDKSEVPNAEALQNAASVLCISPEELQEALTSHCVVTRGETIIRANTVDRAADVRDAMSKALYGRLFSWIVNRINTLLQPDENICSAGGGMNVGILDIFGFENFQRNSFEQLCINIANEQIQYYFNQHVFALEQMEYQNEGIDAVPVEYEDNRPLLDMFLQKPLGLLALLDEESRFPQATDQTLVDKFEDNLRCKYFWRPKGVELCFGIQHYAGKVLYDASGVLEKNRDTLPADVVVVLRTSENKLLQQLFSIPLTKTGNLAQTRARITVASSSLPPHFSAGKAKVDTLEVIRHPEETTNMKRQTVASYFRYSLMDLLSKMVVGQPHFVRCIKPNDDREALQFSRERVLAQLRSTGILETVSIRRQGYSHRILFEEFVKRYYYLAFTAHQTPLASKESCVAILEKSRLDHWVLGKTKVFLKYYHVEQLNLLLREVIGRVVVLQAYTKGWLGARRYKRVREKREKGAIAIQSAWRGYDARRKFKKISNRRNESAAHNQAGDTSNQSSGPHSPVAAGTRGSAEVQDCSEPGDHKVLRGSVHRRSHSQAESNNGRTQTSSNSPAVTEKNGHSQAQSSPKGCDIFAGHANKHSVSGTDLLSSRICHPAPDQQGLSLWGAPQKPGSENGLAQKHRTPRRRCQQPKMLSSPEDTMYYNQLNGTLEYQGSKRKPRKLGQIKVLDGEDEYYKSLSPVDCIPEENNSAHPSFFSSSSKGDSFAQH
# Summary of the method: as §1
# PKN1 = PKN1 (Homo sapiens, UniProt Q16512)
# Chain of PKN1 (Q16512 whole entry): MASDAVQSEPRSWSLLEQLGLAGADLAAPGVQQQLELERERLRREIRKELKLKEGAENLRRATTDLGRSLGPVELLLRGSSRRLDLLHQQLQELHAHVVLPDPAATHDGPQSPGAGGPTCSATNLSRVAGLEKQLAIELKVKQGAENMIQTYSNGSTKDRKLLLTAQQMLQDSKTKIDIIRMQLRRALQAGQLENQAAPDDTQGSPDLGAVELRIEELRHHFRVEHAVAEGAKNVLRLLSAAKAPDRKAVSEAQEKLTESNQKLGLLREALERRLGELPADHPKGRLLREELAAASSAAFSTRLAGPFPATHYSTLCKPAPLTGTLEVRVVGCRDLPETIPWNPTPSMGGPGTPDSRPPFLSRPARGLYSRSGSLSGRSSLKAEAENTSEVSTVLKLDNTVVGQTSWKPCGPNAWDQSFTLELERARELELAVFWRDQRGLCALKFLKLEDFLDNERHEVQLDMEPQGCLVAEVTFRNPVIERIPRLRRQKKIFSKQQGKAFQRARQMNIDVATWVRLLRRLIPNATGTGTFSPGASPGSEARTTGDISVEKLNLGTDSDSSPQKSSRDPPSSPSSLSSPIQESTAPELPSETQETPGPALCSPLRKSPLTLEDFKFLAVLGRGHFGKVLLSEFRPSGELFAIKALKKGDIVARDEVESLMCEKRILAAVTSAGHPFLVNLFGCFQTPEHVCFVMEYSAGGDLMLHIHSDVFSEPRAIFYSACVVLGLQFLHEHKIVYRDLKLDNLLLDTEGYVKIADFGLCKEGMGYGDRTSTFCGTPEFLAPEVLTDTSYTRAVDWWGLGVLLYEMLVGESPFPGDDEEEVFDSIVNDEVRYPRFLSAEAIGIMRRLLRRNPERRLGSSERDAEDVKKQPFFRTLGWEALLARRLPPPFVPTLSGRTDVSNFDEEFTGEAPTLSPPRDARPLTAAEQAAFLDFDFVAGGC
# Summary of the method: as §1
# [2] = molecular target: T8, RSK4(Kin.Dom.1-N-terminal) (Homo sapiens, UniProt Q9UK32)
# T8 construct: gene RPS6KA6; Kin.Dom.1-N-terminal
# Summary of the method: as §1
# ULK3 = ULK3 (Homo sapiens, UniProt Q6PHR2)
# Chain of ULK3 (Q6PHR2 whole entry): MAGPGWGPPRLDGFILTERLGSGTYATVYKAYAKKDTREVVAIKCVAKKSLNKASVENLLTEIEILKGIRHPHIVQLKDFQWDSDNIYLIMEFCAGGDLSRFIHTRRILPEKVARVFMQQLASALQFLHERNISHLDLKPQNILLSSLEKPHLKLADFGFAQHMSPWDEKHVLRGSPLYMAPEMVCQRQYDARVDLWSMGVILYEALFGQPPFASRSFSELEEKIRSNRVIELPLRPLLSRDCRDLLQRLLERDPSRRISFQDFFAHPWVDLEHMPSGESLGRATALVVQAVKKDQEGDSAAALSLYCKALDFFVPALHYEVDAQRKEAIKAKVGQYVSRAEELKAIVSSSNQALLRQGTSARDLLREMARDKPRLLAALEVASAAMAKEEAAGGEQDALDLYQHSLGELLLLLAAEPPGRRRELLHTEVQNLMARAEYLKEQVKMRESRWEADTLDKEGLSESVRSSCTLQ
# Summary of the method: as §1
# ZAK = molecular target: T9, ZAK (Homo sapiens, UniProt Q9NYL2)
# T9 construct: gene MAP3K20
# Summary of the method: as §1
# p38-beta = molecular target: T10, p38-beta (Homo sapiens, UniProt Q15759)
# T10 construct: gene MAPK11
# Summary of the method: as §1
compound,measurement,setting,value
C=C(C)[C@H]1CC=C(C)C(=O)C1 [S-carvone],remaining binding at 100 µM,[1],67%
same,remaining binding at 100 µM,ABL1-phosphorylated,73%
same,remaining binding at 100 µM,ABL2,85%
same,remaining binding at 100 µM,ANKK1,91%
same,remaining binding at 100 µM,EGFR(G719C),74%
same,remaining binding at 100 µM,EPHA4,84%
same,remaining binding at 100 µM,ERK1,75%
same,remaining binding at 100 µM,FAK,81%
same,remaining binding at 100 µM,FGR,57%
same,remaining binding at 100 µM,GSK3B,82%
same,remaining binding at 100 µM,JNK2,95%
same,remaining binding at 100 µM,JNK3,88%
same,remaining binding at 100 µM,"KIT(V559D,T670I)",91%
same,remaining binding at 100 µM,LATS2,45%
same,remaining binding at 100 µM,MINK,72%
same,remaining binding at 100 µM,MYO3B,94%
same,remaining binding at 100 µM,PKN1,93%
same,remaining binding at 100 µM,[2],63%
same,remaining binding at 100 µM,ULK3,77%
same,remaining binding at 100 µM,ZAK,72%
same,remaining binding at 100 µM,p38-beta,98%
